According to patent US6489307B1, “Antisense compositions targeted to β1-adrenoceptor-specific mRNA and methods of use” (University of Florida, priority 1998, dated 2002):

What was measured:
[1] = test system: MDA (lipid peroxidation); assay: MDA levels in myocardium after ischemia-reperfusion; format: in vivo, Sprague-Dawley rats; conditions: pretreatment before ischemia-reperfusion; vs saline
Description: Malondialdehyde (MDA) levels in myocardium were measured in duplicate by a modification of the method of Ohkawa et al., (1979). Briefly, the ventricular tissues were homogenized. The assay mixture consisted of 0.1 ml of the tissue homogenate, 0.4 ml of 0.9% NaCl, 0.5 ml of 3% sodium dodecylsulfate, 3 ml of TBA (thiobarbituric acid reagent, containing equal parts of 0.8% aqueous thiobarbituric acid and acetic acid) and was heated for 75 min at 95° C. Thereafter, 1 ml cold 0.9% NaCl was added to the mixture, which was cooled and extracted with 5 ml n-butanol. After centrifugation at 3,000 rpm for 15 min, the butanol phase was assayed spectrophotometrically at 532 nm. Tetramethoxypropane (in amounts of 0, 0.1, 0.2, 0.4, 0.8, 1.0 nmole) served as external standard. MDA levels in myocardium were expressed in μmol/g tissue.

[2] = test system: β1-AR; assay: β-AR density in myocardium after ischemia-reperfusion (binding assay); format: in vivo, Sprague-Dawley rats
Description: Membrane protein was prepared from left ventricles as previously described (Baker and Pitha, 1982). For saturation studies, 100 μg membrane protein was incubated in triplicate with ^125I-(−)iodocyanopindolol (I-CYP, NEN Life Science, 6.25-100 pM) in a total volume of 250 μl containing 50 mM Tris-HCl (pH 7.4), 5 mM MgCl2 at 36° C. for 60 min. The nonspecific and β2-adrenoceptor binding were determined in the presence of 1 μM (±)-alprenolol and […] (RBI), respectively. Then the reaction mixture was passed through Whatman GF/B glass filter using Brandel harvester and the radioactivity was counted for one min.

[3] = test system: β1-AR; assay: Quantitative autoradiography of brain, heart and kidney sections; format: in vivo, rat (SHR)
Description: (§1) Four days after injection of 1 mg/kg β1-AS-ODN (n=6) or saline (n=6), rats were killed, and tissues were removed and frozen in dry ice. Coronal sections of brain, horizontal sections of heart, and sagittal sections of kidney (20 μm) were cut on a cryostat (Microm, Thornwood, N.Y.) at ^−20° C. and mounted on microscope slides. Every seventh slide was stained with hematoxylin and eosin for histology. Tissue sections were preincubated in Krebs buffer (mmol/L: NaCl 118.4, KCl 4.7, MgSO4 1.2, CaCl2 1.27 and NaH2PO4 10.0, pH 7.1) containing 0.1 mmol/L GTP, 0.1 mmol/L ascorbic acid, and 10 μmol/L PMSF for 30 minutes at 25° C. Sections were then incubated in Krebs buffer containing 0.1 mmol/L ascorbic acid and 10 μmol/L PMSF with 100 pmol/L ICYP at 25° C. for 150 minutes in the presence of 1 μmol/L (^−) propranolol, 100 nmol/L ICI 118,551 ([…]), or 100 nmol/L CGP20712A (β1-selective antagonist) to distinguish nonspecific, β1−, and β2-bindings. Labeled sections were rinsed in the same buffer, followed by two 15-min. washes at 37° C. in the buffer, and rinsed in distilled water at 25° C. (Matthews et al., 1994). Dried sections were then exposed to x-ray films. The images were quantified with a computerized image analysis system (MCID, Imaging Research) and normalized with ^125I standards.
(§2) Four days after injection of 0.5 mg/kg β1-AS-ODN (n=6) or saline (n=6), rats were euthanized, and the right kidneys were removed and frozen in dry ice. Sagittal sections of kidney (20 μm) were cut on a cryostat (Microm) at −20° C. and mounted on microscope slides. Every seventh slide was stained with hematoxylin and eosin for histology. Receptor autoradiography was performed as described (Matthews et al., 1994) with 100 pmol/L ICYP at 25° C. for 150 min. in the presence of 1 μmol/L (−)-propranolol, […] ICI 118,551 (β2-selective antagonist), or 100 nmol/L CGP 20712A (β1-selective antagonist) to distinguish nonspecific, β1, and β2-bindings. The images were quantified with a computerized image analysis system (MCID, Imaging Research) and normalized with ^125I standards.
(§3) Four days after injection of 1 mg/kg β1-AS-ODN (n=6) or saline (n=6), rats were sacrificed and tissues were removed and frozen in dry ice. Coronal sections of brain, horizontal sections of heart and sagittal sections of kidney (20 μm) were cut on a cryostat (Microm) at −20° C. and mounted on microscope slides. Every seventh slide was stained with haematoxylin and eosin for histology. Tissue sections were preincubated in Krebs buffer (NaCl 118.4 mM, KCl 4.7 mM, MgSO4 1.2 mM, CaCl2 1.27 mM, NaH2PO4 10.0 mM, pH 7.1) containing 0.1 mM guanosine triphosphate (GTP), 0.1 mM ascorbic acid and 10 μM phenylmethylsulfonylfluoride (PMSF) for 30 min at 25° C. Sections were then incubated in Krebs buffer containing 0.1 mM ascorbic acid and 10 μM PMSF with 100 pM I-CYP at 25° C. for 150 min, in the presence of 1 μM (−)propranolol, 100 nM IC1118,551 (β2-selective antagonist) or 100 nM CGP20712A (β1-selective antagonist) to distinguish non-specific, β1- and β2-bindings. Labeled sections were rinsed in the same buffer, followed by two 15-min washes at 37° C. in the buffer and rinsed in distilled water at 25° C. (Matthews et al., 1994). Dried sections were then exposed to X-ray films (Kodak Biomax-MR). The images were quantitated with a computerized image analysis system (MCID, Imaging Research) and normalized using ^125I-standards.

[4] = test system: β2-ARs; assay: as above; format: in vivo, rat (SHR)
Description: as §1, §2, §3

[5] = test system: SHRs; format: in vivo, rat (SHR)
Description: (§4) Each rat cage was placed on a receiver (RLA 1020, Data Sciences, St. Paul, Minn.) for measurement of cardiovascular parameters. Data were collected with a computer-based data acquisition program (Dataquest Lab-PRO3.0; Data Sciences). BP and HR were measured every 10 min. and averaged every 1 to 24 hrs. Before treatment, SHRs were monitored for a week to get a stable baseline.
as §4, with “(RLA1020,” for “(RLA 1020,”, “Sciences)” for “Sciences, St. Paul, Minn.)”, “LabPRO3.0;” for “Lab-PRO3.0;”, “min” for “min.”, “hr.” for “hrs.”, “SHR” for “SHRs”

[6] = 4 days after i.v. administration

Substance | increase in MDA levels in the myocardium [1] | effect on β1-AR density in ischemic-reperfused myocardium ([2]; rat, in vivo) | β1-AR density (Bmax) in ischemic-reperfused myocardium ([2]; vs 28.7±5.4 in saline-treated rat hearts) [fmol/mg] | overall density of β1-subtype in kidney ([3]; 4 days after 0.5 mg/kg, from 23.5±2.1) [fmol/mg] | β1-AR density in renal cortex ([3]; 4 days after i.v. 1 mg/kg, from 26.4±3.1) [fmol/mg] | β1-AR density in cardiac ventricles ([3]; 4 days after i.v. 1 mg/kg, from 30.2±2.1) [fmol/mg] | distribution of β-ARs in forebrain and brain stem regions [3, 6] | distribution and concentration of β2-subtype in kidney ([4]; 4 days after 0.5 mg/kg) | β2-ARs in any tissues [4, 6] | duration of antihypertensive effect ([5]; 1 mg/kg, liposomes 1:0.5) [days] | maximum drop in mean BP ([5]; 1 mg/kg, liposomes 1:0.5) [mm Hg] | reflex tachycardia ([5]; rat, in vivo)
5′-AGCCGTACCCGCGCC-3′ (phosphorothioate backbone, further chemistry not given here) [Inverted ODN, 15-mer inverted ODN control, reference compound] | did not affect | no effect |  |  |  |  |  |  |  |  |  | 
5′-CCGCGCCCATGCCGA-3′ (phosphorothioate backbone, further chemistry not given here) [β1-AS-ODN, 15-mer antisense ODN targeted to the AUG start codon of rat β1-AR mRNA] | attenuated the increase |  | 15.9 ± 1.3 | 15.4 ± 3.3 | 17.4 ± 3.3 | 20.6 ± 2.5 | no detectable changes | remained unchanged | not affected | 8 | 15 | no reflex tachycardia
